# Measured values taken from paper PMC6207618, “The GbsR Family of Transcriptional Regulators: Functional Characterization of the OpuAR Repressor” (Frontiers in Microbiology, 2018).
# Entries after “also recorded” stand apart in the source; their conditions may differ.
# Test system: B. infantis NRRL B-14911
# Assay: Osmostress protection assay of B. infantis
# Assay type: cell-based, Bacillus infantis
# Details: basal medium with 0.9 M NaCl, 1 mM osmostress protectant, 29 h, 37°C
# Protocol: Bacterial strains were propagated in Luria–Bertani (LB) liquid media at 37°C or plated on LB agar plates. The B. infantis strain NRRL B-14911 was grown in MOPS-buffered basal medium [50 mM MOPS (pH 7.5), 50 mM MgSO4, 10 mM KCl, 10 mM CaCl2, 190 mM NH4Cl, 0.33 mM K2HPO4, 0.1 mM FeSO4] supplemented with 0.5% glucose (wt/vol) as a carbon source, 0.4% casamino acids (wt/vol), 5 ml l^-1 vitamin solution A (7.8 mg l^-1 biotin, 15.6 mg l^-1 nicotinic acid, and 15.6 mg l^-1 lipoic acid; pH adjusted to 7.5), and 5 ml l^-1 vitamin solution B (15.6 mg l^-1 pantothenic acid, 15.6 mg l^-1 pyridoxine-HCl, 15.6 mg l^-1 thiamine, 15.6 mg l^-1 p-aminobenzoic acid, and 0.32 mg l^-1 cobalamin) ([Gonzalez et al., 1997]). In main cultures used for osmostress protection assays, casamino acids were left out from the growth medium. The osmolarity of growth media was adjusted by the addition of NaCl from a 5 M NaCl stock solution. If desired, osmostress protectants were added to the medium of B. infantis NRRL B-14911 cultures at a final concentration of 1 mM. For growth experiments, liquid cultures of B. infantis NRRL B-14911 were grown in 100-ml Erlenmeyer flasks containing 20-ml of medium in a water bath set to 37°C with vigorous shaking (set to 220 rpm). Pre-cultures of strains were propagated to mid-exponential growth phase in basal medium (with 0.4% casamino acids) and were then used to inoculate fresh basal medium (without casamino acids) to an optical density at 578 nm (OD578) of 0.1. Liquid cultures of B. subtilis strains were grown at 37°C in Spizizen’s minimal medium (SMM) ([Harwood and Archibald, 1990]) with 0.5% glucose as carbon source and a solution of trace elements ([Harwood and Cutting, 1990]). L-Tryptophan (20 mg l^-1) and L-phenylalanine (18 mg l^-1) were added to SMM-derived growth media to satisfy the auxotrophic needs of the B. subtilis strain JH642 (trpC2 pheA1) ([Smith et al., 2014]) and its derivatives (Supplementary Table S1). Cultures (20-ml in 100-ml Erlenmeyer flasks) of B. subtilis strains were inoculated from exponentially growing pre-cultures in SMM to an OD578 of 0.1 and were incubated in a shaking water bath (set to 220 rpm) at 37°C. If needed, the osmolarity of the growth medium was increased by the addition of NaCl (from 5 M stock solutions prepared in H2O). Compatible solutes were filter sterilized and added to the growth medium of B. subtilis strains from 100 mM stock solutions to a final concentration of 1 mM unless otherwise explicitly stated in the text.
# (A) Influence of increasing salinity on the growth of B. infantis NRRL B-14911. Cultures were grown in basal medium adjusted to the indicated salinity. Growth yields were measured after 30 h of incubation at 37°C. (B) Osmostress protection assays were carried out in basal medium supplemented with 0.9 M NaCl and in the presence of 1 mM of the indicated osmostress protectants. After 29 h of incubation at 37°C, growth yields were determined by measuring the OD578 of the cultures. (C) Substrate specificity of the B. infantis OpuA transporter. The opuA operon (and its flanking opuAR gene) of B. infantis NRRL B-14911 was heterologously expressed in a derivative of B. subtilis JH642, lacking all uptake system for compatible solutes except for the L-proline-specific OpuE transporter ([Hoffmann and Bremer, 2017]; [Teichmann et al., 2017]). Growth assays were conducted in minimal medium (SMM), either in the absence or presence of 1.2 M NaCl and 1 mM of the indicated osmostress protectants. After 18 h of incubation at 37°C, the optical densities (OD578) of the cultures were measured. The given values are the means and standard deviations of four independent biological replicates.
# Next, we studied the possible osmostress protection of B. infantis NRRL B-14911 by various exogenously provided compatible solutes.
row,SMILES,Osmostress protection (growth yield OD578)
1,"CN(C)CC(=O)O [DMG, dimethlyglycine]",moderate level of osmostress protection
2,"C[S+](C)CCC(=O)[O-] [DMSP, dimethylsulfoniopropionate]",moderate level of osmostress protection
3,C[N+](C)(C)CCO [choline],not osmostress protective; also recorded: does not serve as an osmostress protectant
4,C[N+](C)(C)CC(=O)[O-] [glycine betaine],substantial level of osmostress protection
5,C[N+](C)(C)CCC(=O)[O-] [homobetaine],moderate level of osmostress protection
6,C[N+]1(C)CCC[C@H]1C(=O)[O-] [proline betaine],substantial level of osmostress protection
